Test results published in US20110230367A1, “Amphiphilic Peptides Promoting Production of Target miRNA and Method of Regulating Production of Target miRNA” (SNU R&DB FOUNDATION, priority 2009, published 2011).
“Also recorded” adds a separate entry of the source.

How the values were obtained:
[1] = tested on: recombinant human Dicer processing pre-let7a-1; test: Dicer activity assay in the presence of peptide, substrate pre-let7a-1; assay type: biochemical; conditions: for initial reaction velocity (V0) of Dicer, normalized to no peptide: 400 nM peptide, pre-let7a-1 substrate, FIG. 2; for initial reaction velocity of Dicer: FIG. 3
Procedure: Two types of pre-miRNA (pre-let7a-1, pre-miR16-1) used as the substrate for the Dicer enzyme activity assay was ordered and manufactured by ST Pharm Co., Ltd (FIG. 1). For Dicer activity assay, the 5′ end of the synthesized pre-miRNA was labeled with ^32p isotope. Two pmole of each pre-miRNA was isotope labeled with […] of [g-^32P]ATP (New England Biolabs) using 10 units of T4 polynucleotide kinase (New England Biolabs). Total volume of 10 μl was isotope labeled for 1 hr at 37° C. The isotope labeled RNA obtained after the reaction was purified using G-25 Sephadex column (Sigma). The purified substrate was used for measuring Dicer enzyme activity. Total reaction mixture of 30 μl containing 1 nM of isotope labeled pre-miRNA and 0.001 u/μl of recombinant human Dicer (Genlantis, CA, USA) were incubated at 37° C. in 24 mM 4-(2-hydroxyethyl)-1-piperazineethanesulfonic acid, HEPES) buffer system containing 200 mM NaCl, 0.04 mM EDTA, 1 mM ATP and 2.5 mM MgCl2(pH 8.0). After reacting for 0, 10, 30, […], 3 μl of each reaction mixture was mixed with 5 μl of RNA gel loading buffer {95% formamide, 10 mM ethylenediaminetetraacetic acid (EDTA), 0.05% FF (xylene cyanol FF)} and incubated for 5 min at 65° C. The amount of the reaction product was determined by gel running in 15% polyacrylamide gel containing 7M urea, and then the initial reaction velocity (V0) from each reaction was compared. The initial reaction velocity (V0) of the enzyme is the reaction velocity of the initial linear time (until 30 min). Each initial velocity was normalized with the initial velocity from each substrate condition without peptide treatment. The initial reaction velocity of Dicer for pre-let7a-1 and pre-miR16-1 without peptide treatment were […] and 0.018 fmole/min, respectively. Each of the initial reaction velocity is a mean data of more than 3 measurements, and the standard deviation is shown as error bars.

[2] = tested on: recombinant human Dicer processing pre-miR16-1; test: Dicer activity assay in the presence of peptide, substrate pre-miR16-1; assay type: biochemical; conditions: 400 nM peptide, pre-miR16-1 substrate, FIG. 2
Procedure: Two types of pre-miRNA (pre-let7a-1, pre-miR16-1) used as the substrate for the Dicer enzyme activity assay was ordered and manufactured by ST Pharm Co., Ltd (FIG. 1). For Dicer activity assay, the 5′ end of the synthesized pre-miRNA was labeled with ^32p isotope. Two pmole of each pre-miRNA was isotope labeled with […] of [g-^32P]ATP (New England Biolabs) using 10 units of T4 polynucleotide kinase (New England Biolabs). Total volume of 10 μl was isotope labeled for 1 hr at 37° C. The isotope labeled RNA obtained after the reaction was purified using G-25 Sephadex column (Sigma). The purified substrate was used for measuring Dicer enzyme activity. Total reaction mixture of 30 μl containing 1 nM of isotope labeled pre-miRNA and 0.001 u/μl of recombinant human Dicer (Genlantis, CA, USA) were incubated at 37° C. in 24 mM 4-(2-hydroxyethyl)-1-piperazineethanesulfonic acid, HEPES) buffer system containing 200 mM NaCl, 0.04 mM EDTA, 1 mM ATP and 2.5 mM MgCl2(pH 8.0). After reacting for 0, 10, 30, 60 or 120 min in the presence of 400 nM concentration of 2b or 2c peptide, 3 μl of each reaction mixture was mixed with 5 μl of RNA gel loading buffer {95% formamide, 10 mM ethylenediaminetetraacetic acid (EDTA), 0.05% FF (xylene cyanol FF)} and incubated for 5 min at 65° C. The amount of the reaction product was determined by gel running in 15% polyacrylamide gel containing 7M urea, and then the initial reaction velocity (V0) from each reaction was compared. The initial reaction velocity (V0) of the enzyme is the reaction velocity of the initial linear time (until 30 min). Each initial velocity was normalized with the initial velocity from each substrate condition without peptide treatment. The initial reaction velocity of Dicer for pre-let7a-1 and pre-miR16-1 without peptide treatment were […] and 0.018 fmole/min, respectively. Each of the initial reaction velocity is a mean data of more than 3 measurements, and the standard deviation is shown as error bars.

[3] = tested on: mature let7a-1 in HCT116 cells; test: Production of mature miRNA in HCT116 cells by northern blotting; assay type: cell-based; conditions: 2 μM peptide, 3 hrs, FIG. 4
Procedure: The HCT116 cell was purchased from American Type Culture Collection (ATCC) and was cultured in RPMI1640 medium at 37° C., under 5% CO2. Total RNA was extracted using Trizol reagent (Invitrogen) according to the manufactures recommended protocol.
The change in RNA amount was analyzed by culturing the cells with 2 μM concentration of peptide 2b or peptide 2c and with lipofectamine.
HCT116 cells were treated with 2 μM of peptide 2b, 2c, 1e or 0.2 μg/ml of doxorubicin for 3 hrs before analyzing the production of mature miRNA in total RNA using northern blotting. The 18S rRNA band intensity was used as the loading control. […] Peptide 1e was used as a negative control. Decade marker (Ambion) and 10˜20 μg of total RNA were separated by using 12.5% polyacrylamide gel containing 7M urea in 20 mM of 3-(N-morpholino)propanesulfonic acid (MOPS)-NaOH(pH 7.0) buffer at 350V for 2 hrs. RNA blotting was performed by chemical cross-linking method. Each of the separated RNA was transferred with the neutral nylon membrane (Hybond NX, Amersham/Pharmacia) and crosslinked to the membrane using 1-ethyl-3-(3-dimethylaminopropyl)carbodiimide (EDC). The membrane was prehybridized with the hybridization buffer (Clontech, CA, USA) containing 50 μl of 10 mg/ml of salmon sperm DNA. Next, the isotope labeled probe DNA which is complementary to the miRNA sequence was hybridized for 2 hrs in the same buffer condition.
The probe was isotope labeled with 25 μCi of [γ-^32P] ATP (New England Biolabs) and 5 units of polynucleotide kinase (New England Biolabs). The probe was ethanol precipitated and dissolved in 50 μl of DEPC treated water for use. The membrane was washed twice for 30 min with 200 ml of wash buffer containing 0.3 M NaCl, 0.03 M sodium citrate and 0.05% sodium dodecyl sulfate (SDS)(pH 7.0), then washed twice for 15 min with 200 ml of wash buffer containing 0.015 M NaCl, 0.0015 M sodium citrate and 0.1% SDS(pH 7.0). The membrane was exposed on the phosphorimager screen and each of the band intensity was detected by FLA-3000 and analyzed by using MultiGauge Ver. 3.0 software (Fuji Photo).

EC50 ([1]; FIG. 3, concentration dependence, pre-miRNA substrate not named, read-out: EC50 of initial velocity of Dicer in processing pre-miRNA) [nM]	Sequence	initial reaction velocity (V0) of Dicer, normalized to no peptide [1]	initial reaction velocity (V0) of Dicer, normalized to no peptide [2]	level of mature let7a-1 [3]	hill slope ([1]; FIG. 3, concentration dependence, pre-miRNA substrate not named)	initial reaction velocity of Dicer ([1]; peptide concentration higher than 100 nM)	initial reaction velocity of Dicer ([1]; peptide concentration higher than 1,000 nM)
	WKKLLKLLKKWLKLAG [Peptide 2c, Ac-WKKLLKLLKKWLKLAG, 14]	increase in initial reaction velocity; also recorded: accelerated	increase in initial reaction velocity; also recorded: accelerated	increased			
940	WKKLLKWLKKLLKLAG [Peptide 2b, Ac-WKKLLKWLKKLLKLAG, 13]	highest acceleration; also recorded: profound increase	significantly increased; also recorded: accelerated	significant increase	3.5	significant increase; also recorded: rapid increase	decrease
